Laboratory results reported in the supplement of paper PMC11919725.

Assays:
Jurkat [1] = test: confluency relative to DMSO, 18 h (ratio); higher = more viable
How it was run: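 Jurkat cells and primary CD4+/CD8+ T cells, naive or activated with CD3/CD28 Dynabeads for 48 h, were treated with compound (1 nM–10 µM, log10 steps) for 18 h at 37 °C. Following transfer of 100 µl into 96-well plates with IncuCyte Cytotox Dye and alamarBlue, wells were imaged at ×10, five images per well, each hour for 3 h. Confluency, obtained with the IncuCyte Basic Analyzer from phase-contrast images, is normalised to the mean of the control wells.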

Jurkat [2] = test: metabolic activity relative to DMSO, 18 h (ratio); higher = more viable
How it was run: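 Jurkat or primary CD4+/CD8+ T cells (naive, or activated 48 h with CD3/CD28 Dynabeads) were treated 18 h with compound at 1 nM–10 µM (log10 steps) at 37 °C, 5% CO2. Then 100 µl of suspension went into 96-well plates with alamarBlue (10% v/v final). After 3.5 h, fluorescence was read on a FluoStar Omega (excitation 544 nm, emission 584 nm). Metabolic activity is normalised to mean DMSO controls.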

Jurkat [3] = test: cytotoxicity relative to DMSO, 18 h (ratio); higher = less cell death (drugs called cytotoxic fall below 1)
How it was run: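 The assay used Jurkat cells or naive or CD3/CD28 Dynabead-activated (48 h) primary CD4+/CD8+ T cells, incubated with compound at 1 nM–10 µM in log10 steps for 18 h at 37 °C, 5% CO2. Cytotoxicity was assessed with IncuCyte Cytotox Dye and IncuCyte fluorescence imaging, corrected for confluency and scaled to mean control signals.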

| Structure (SMILES) | confluency (Jurkat [1]; 1 nM) | confluency (Jurkat [1]; 10 nM) | confluency (Jurkat [1]; 100 nM) | confluency (Jurkat [1]; 1000 nM) | confluency (Jurkat [1]; 10000 nM) | metabolic activity (Jurkat [2]; 1 nM) | metabolic activity (Jurkat [2]; 10 nM) | metabolic activity (Jurkat [2]; 100 nM) | metabolic activity (Jurkat [2]; 1000 nM) | metabolic activity (Jurkat [2]; 10000 nM) | cytotoxicity (Jurkat [3]; 1 nM) | cytotoxicity (Jurkat [3]; 10 nM) | cytotoxicity (Jurkat [3]; 100 nM) | cytotoxicity (Jurkat [3]; 1000 nM) | cytotoxicity (Jurkat [3]; 10000 nM) |
| --- | --- | --- | --- | --- | --- | --- | --- | --- | --- | --- | --- | --- | --- | --- | --- |
| CC(C)C(C(=O)Nc1ccc(C(=O)NO)cc1)c1ccccc1 (stereo not given) [AR-42] | 0.972 | 0.984 | 0.941 | 0.97 | 0.97 | 0.942 | 1.02 | 0.934 | 0.577 | 0.695 | 0.947 | 1.02 | 0.892 | 0.807 | 0.811 |
| Cc1ncc(-c2ccnc(Nc3ccc(S(C)(=O)=O)cc3)n2)n1C(C)C [AZD-5438] | 1.06 | 1.12 | 0.972 | 0.991 | 0.944 | 1.08 | 1.14 | 1.14 | 1.08 | 0.124 | 0.927 | 0.91 | 0.951 | 1.03 | 1.02 |
| Cc1cc(C(C)Nc2ccccc2C(=O)O)c2nc(N3CCOCC3)cc(=O)n2c1 (stereo not given) [AZD-6482] | 1.03 | 1.03 | 0.994 | 0.984 | 0.928 | 1.16 | 1.14 | 1.03 | 1.03 | 0.923 | 1.19 | 1.22 | 1.14 | 1.06 | 0.946 |
| COc1ccc(-c2ccc3c(N4CCOCC4C)nc(N4CCOCC4C)nc3n2)cc1CO (stereo not given) [AZD-8055] | 0.982 | 1 | 0.96 | 0.99 | 0.99 | 0.971 | 0.823 | 0.622 | 0.572 | 0.537 | 0.884 | 0.815 | 0.84 | 0.834 | 0.823 |
| CC(Nc1cc(F)cc(F)c1)c1cc(C(=O)N(C)C)cc2c(=O)cc(N3CCOCC3)oc12 (stereo not given) [AZD-8186] | 0.882 | 0.901 | 0.946 | 0.826 | 0.846 | 0.891 | 1.03 | 1.01 | 1.03 | 1.08 | 0.895 | 0.858 | 0.928 | 0.803 | 0.831 |
| CCN1CCN(Cc2ccc(Nc3ncc(F)c(-c4cc(F)c5nc(C)n(C(C)C)c5c4)n3)nc2)CC1 [Abemaciclib] | 0.952 | 1.02 | 0.98 | 0.991 | 0.818 | 1.22 | 1.24 | 1.2 | 1.15 | 0.888 | 1.04 | 1.13 | 1.06 | 1.09 | 0.718 |
| Cc1c2oc3c(C)ccc(C(=O)NC4C(=O)NC(C(C)C)C(=O)N5CCCC5C(=O)N(C)CC(=O)N(C)C(C(C)C)C(=O)OC4C)c3nc-2c(C(=O)NC2C(=O)NC(C(C)C)C(=O)N3CCCC3C(=O)N(C)CC(=O)N(C)C(C(C)C)C(=O)OC2C)c(N)c1=O (stereo not given) [Actinomycin D] | 1.11 | 1.09 | 0.972 | 0.907 | 0.923 | 0.959 | 0.746 | 0.2 | 0.152 | 0.192 | 1.08 | 1.02 | 0.661 | 0.517 | 0.477 |
| Cc1nc(NC(=O)N2CCCC2C(N)=O)sc1-c1ccnc(C(C)(C)C(F)(F)F)c1 (stereo not given) [Alpelisib] | 0.994 | 0.977 | 0.984 | 1.02 | 0.933 | 1.04 | 0.899 | 0.903 | 0.94 | 0.873 | 0.929 | 0.926 | 0.959 | 0.997 | 0.881 |
| CN1CCC(c2c(O)cc(O)c3c(=O)cc(-c4ccccc4Cl)oc23)C(O)C1 (stereo not given) [Alvocidib] | 0.999 | 0.999 | 0.974 | 0.927 | 0.939 | 1.04 | 0.946 | 0.712 | 0.086 | 0.108 | 1.03 | 0.92 | 0.89 | 0.505 | 0.526 |
| COc1cc(OC)c2c(=O)[nH]c(-c3cc(C)c(OCCO)c(C)c3)nc2c1 [Apabetalone] | 1.08 | 1.11 | 1.04 | 1.08 | 1.1 | 0.842 | 0.904 | 0.962 | 0.952 | 0.932 | 1.06 | 1.08 | 1.01 | 1.04 | 1.01 |
| Cc1c(CN2CCN(C(=O)C(C)O)CC2)sc2c(N3CCOCC3)nc(-c3cnc(N)nc3)nc12 (stereo not given) [Apitolisib] | 0.851 | 1.06 | 0.825 | 0.998 | 0.727 | 0.857 | 0.984 | 0.899 | 0.955 | 0.781 | 0.79 | 0.992 | 0.752 | 0.937 | 0.628 |
| COc1ccc(-c2ccc3ncc4c(c3c2)n(-c2ccc(N3CCNCC3)c(C(F)(F)F)c2)c(=O)n4C)cn1 [BGT-226] | 1.03 | 0.954 | 0.935 | 0.793 | 0.831 | 0.968 | 0.842 | 0.693 | 0.604 | 0.048 | 1.02 | 0.915 | 0.808 | 0.672 | 0.448 |
